Reference: ChEMBL document CHEMBL5131432, “Novel 2,4-disubstituted quinazoline analogs as antibacterial agents with improved cytotoxicity profile: Modification of the benzenoid part” (Bioorg Med Chem Lett, 2022)
≈ marks a conversion by molar mass, not a printed value.

What was measured:
[1] = test system: Escherichia coli; experiment: Antibacterial activity against Escherichia coli K12 harbouring TolC-deficient mutant assessed as bacterial growth inhibition; assay type: functional
[2] = test system: Staphylococcus aureus; experiment: Antibacterial activity against methicillin-sensitive Staphylococcus aureus Newman assessed as bacterial growth inhibition; assay type: functional
[3] = test system: Streptococcus pneumoniae; experiment: Antibacterial activity against Streptococcus pneumoniae DSM-20566 assessed as bacterial growth inhibition; assay type: functional
[4] = test system: Escherichia coli; experiment: Antibacterial activity against wild type Escherichia coli DSM-11116 assessed as bacterial growth inhibition; assay type: functional
[5] = test system: Enterococcus faecalis; experiment: Antibacterial activity against Enterococcus faecalis DSM-20478 assessed as bacterial growth inhibition; assay type: functional
[6] = test system: Streptococcus pneumoniae; experiment: Antibacterial activity against penicillin-resistant Streptococcus pneumoniae DSM-11865 assessed as bacterial growth inhibition; assay type: functional
[7] = test system: Enterococcus faecium; experiment: Antibacterial activity against Enterococcus faecium DSM-20477 assessed as bacterial growth inhibition; assay type: functional
[8] = test system: Mycolicibacterium smegmatis; experiment: Antibacterial activity against Mycobacterium smegmatis mc2 155 assessed as bacterial growth inhibition; assay type: functional
[9] = test system: Escherichia coli; experiment: Antibacterial activity against Escherichia coli harbouring TolC-deficient mutant assessed as bacterial growth inhibition; assay type: functional
[10] = test system: Staphylococcus aureus; experiment: Antibacterial activity against methicillin-resistant Staphylococcus aureus N315 assessed as bacterial growth inhibition; assay type: functional
[11] = test system: Mycolicibacterium smegmatis; experiment: Antibacterial activity against Mycobacterium smegmatis assessed as bacterial growth inhibition; assay type: functional
[12] = test system: Staphylococcus aureus; experiment: Antibacterial activity against methicillin-resistant and vancomycin-intermediate Staphylococcus aureus Mu50 assessed as bacterial growth inhibition; assay type: functional
[13] = Cytotoxicity against human HepG2 cells assessed as inhibition of cell growth; assay type: toxicity, cell-based
[14] = Selectivity index, ratio of IC50 for cytotoxicity against human HepG2 cells to MIC for antibacterial activity against Enterococcus faecalis DSM-20478; assay type: toxicity, cell-based
[15] = Selectivity index, ratio of IC50 for cytotoxicity against human HepG2 cells to MIC for antibacterial activity against Enterococcus faecium DSM-20477; assay type: toxicity, cell-based
[16] = Selectivity index, ratio of IC50 for cytotoxicity against human HepG2 cells to MIC for antibacterial activity against Streptococcus pneumoniae DSM-20566; assay type: toxicity, cell-based
[17] = Selectivity index, ratio of IC50 for cytotoxicity against human HepG2 cells to MIC for antibacterial activity against methicillin-sensitive Staphylococcus aureus Newman; assay type: toxicity, cell-based

Structure (SMILES) | MIC [1] [µg/mL] | MIC [2] [µg/mL] | MIC [3] [µg/mL] | MIC [4] [µg/mL] | MIC [5] [µg/mL] | MIC [6] [µg/mL] | MIC [7] [µg/mL] | MIC [8] [µg/mL] | MIC [9] [µg/mL] | MIC [10] [µg/mL] | MIC [11] [µg/mL] | MIC [12] [µg/mL] | IC50 [13] [µg/mL] | selectivity ratio [14] | selectivity ratio [15] | selectivity ratio [16] | selectivity ratio [17]
CCCCNc1nc(SCCCC)nc2ccccc12 | 2 (≈ 6.91 µM) | 8 (≈ 27.6 µM) | 4 (≈ 13.8 µM) | > 128 | 4 (≈ 13.8 µM) | 3 (≈ 10.4 µM) | 4 (≈ 13.8 µM) | 8 (≈ 27.6 µM) | 2 (≈ 6.91 µM) | 8 (≈ 27.6 µM) | 2 (≈ 6.91 µM) | 4 (≈ 13.8 µM) |  |  |  |  | 
CCCCNc1nc(SCCCC)nc2ccc(-c3cccc(O)c3)cc12 | > 128 | 2 (≈ 5.24 µM) | 1 (≈ 2.62 µM) | > 128 | 2 (≈ 5.24 µM) | 16 (≈ 41.9 µM) | 4 (≈ 10.5 µM) | 16 (≈ 41.9 µM) |  | > 128 |  | > 128 | 15.3 (≈ 40.1 µM) | 3 | 3 | 3 | 3
